Data as given in US8168400B2, “Methods and kits for detection of thromboxane A2 metabolites” (Corgenix Medical Corporation, priority 2005, dated 2012).
Entries after “also recorded” stand apart in the source; their conditions may differ.

Tests used:
[1] = test system: monoclonal antibodies of the present invention (anti-11 dhTxB2 / 11 dh2,3dTxB2 mAb); assay: Monoclonal antibody specificity: percent cross-reactivity (enzyme-based competition assay); format: binding, mouse; conditions: for % Reactivity (cross reactivity): relative to 11 dh TxB2 = 100%
Procedure: The present invention provides a urinary 11dhTxB2 Competitive ELISA Assay. An illustrative standard curve was prepared (see FIG. 6) by spiking known amounts of 11dhTxB2 into low level urine diluted 1:5 in Tris assay buffer (0.1M Tris, 0.1% BSA) or into assay buffer alone. 100 μl of standards or actual samples (having taken known amounts of aspirin and diluted 1:5 in Tris assay buffer) was added to wells coated with goat anti-mouse antibody, followed by the addition of 50 μl of 11 dhTxB2-AP (alkaline phosphatase) tracer and 50 μl of 11 dhTxB2 mAb. The reactions were then allowed to incubate for a predetermined amount of time, typically with shaking at room temperature. In preferred embodiments the incubation is about two hours in length. Each well is then washed with a wash buffer and approximately 200 μl of substrate added (p-nitrophenyl-phosphate, pNPP). The reactions are then incubated again for approximately thirty minutes. A stop solution is added to each well, and the plate read for OD at 405 nm.
Antibody clones of the invention were tested to determine cross-reactivity against various Thromboxane A2 metabolites and other like compounds. Table 2 provides percent cross reactivity of antibodies of the present invention against these various compounds: […]

[2] = test system: urinary 11dhTxB2 (TxA2 metabolites); assay: Urinary 11dhTxB2 competitive ELISA in subjects on aspirin; format: in vivo, human; conditions: for urinary 11dhTxB2 per mg creatinine, average patient value: healthy no-aspirin average 1119 pg/mg
Procedure: The present invention provides a urinary 11dhTxB2 Competitive ELISA Assay. An illustrative standard curve was prepared (see FIG. 6) by spiking known amounts of 11dhTxB2 into low level urine diluted 1:5 in Tris assay buffer (0.1M Tris, 0.1% BSA) or into assay buffer alone. 100 μl of standards or actual samples (having taken known amounts of aspirin and diluted 1:5 in Tris assay buffer) was added to wells coated with goat anti-mouse antibody, followed by the addition of 50 μl of 11 dhTxB2-AP (alkaline phosphatase) tracer and 50 μl of 11 dhTxB2 mAb. The reactions were then allowed to incubate for a predetermined amount of time, typically with shaking at room temperature. In preferred embodiments the incubation is about two hours in length. Each well is then washed with a wash buffer and approximately 200 μl of substrate added (p-nitrophenyl-phosphate, pNPP). The reactions are then incubated again for approximately thirty minutes. A stop solution is added to each well, and the plate read for OD at 405 nm. Results from the assay provide for the amount of 11dhTxB2 and 11 dh2,3dTxB2 present in the sample (note that results are compared to the standard curve). The amount of the two metabolites present in the sample is indirectly proportional to the optical density read at 405 nm. For clinical samples, creatinine values are also obtained, and data from assays presented as pg metabolite/mg creatinine. Initially, 171 urine samples were taken from subjects either off aspirin or on 81 or 325 mg aspirin/day. TxA2 metabolite amounts were determined for each sample using the methods and kits of the present invention. Values were normalized for urinary dilution by dividing TxA2 metabolite amounts by creatinine concentrations. 354 urine samples from subjects either on or off aspirin therapy were run using the methods and kits of the present invention. Values were calculated and normalized for urinary dilution by dividing by creatinine concentration, and the frequency of each concentration was calculated and shown in a frequency plot, FIG. 5. Subjects on aspirin are plotted with solid bars and subjects not on aspirin are plotted using hatched bars. Positive samples are below 1500 pg/mg creatinine cutoff, whereas negative samples are those that are above the 1500 pg/mg creatinine cutoff. As shown in FIGS. 4-5, clinical data can be obtained using the above-described methods. […] The assay detection range was suitable for measurement of 11dhTxB2 in a population (62-3122 pg 11dhTxB2/mg creatinine—see FIG. 7). […] All three levels of aspirin doses are statistically significant when compared to the healthy, no aspirin controls.

[3] = target: T1, platelet COX-1 (Homo sapiens, UniProt P23219); conditions: low dose aspirin; cited from earlier work
T1 construct: host or cells: platelets (in vivo, patients on low dose aspirin)
T1 sequence (P23219 24-599): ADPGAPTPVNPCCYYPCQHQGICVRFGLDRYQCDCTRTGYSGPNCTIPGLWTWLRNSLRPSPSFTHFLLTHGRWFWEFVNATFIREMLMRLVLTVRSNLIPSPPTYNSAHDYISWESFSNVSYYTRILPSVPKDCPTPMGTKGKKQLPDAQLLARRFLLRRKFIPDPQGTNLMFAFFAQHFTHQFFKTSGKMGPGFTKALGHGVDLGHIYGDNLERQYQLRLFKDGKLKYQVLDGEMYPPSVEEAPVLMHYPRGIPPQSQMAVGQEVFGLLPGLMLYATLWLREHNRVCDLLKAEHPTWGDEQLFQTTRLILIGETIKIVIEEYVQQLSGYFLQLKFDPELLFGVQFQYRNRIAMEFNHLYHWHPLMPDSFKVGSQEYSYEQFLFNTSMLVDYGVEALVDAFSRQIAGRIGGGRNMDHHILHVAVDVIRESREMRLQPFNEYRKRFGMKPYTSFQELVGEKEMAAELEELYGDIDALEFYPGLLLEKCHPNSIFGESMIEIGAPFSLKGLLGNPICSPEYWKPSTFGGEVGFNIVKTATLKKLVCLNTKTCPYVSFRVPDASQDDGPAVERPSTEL

[4] = low dose aspirin; patients with arterial vascular disease; cited from earlier work
[5] = aspirin ingestion present, 354 urine samples in total

Compound: CCCCCC(O)C=CC1OC(=O)CC(O)C1CC=CCCCC(=O)O (stereo not shown) [11 dh TxB2, 11-dehydro Thromboxane B2]
- reactivity of the antibodies with the compound (in words) [1]: react; also recorded: high reactivity
- % Reactivity (cross reactivity) [1]: 100%

Compound: CCCCC[C@H](O)/C=C/[C@H]1[C@H](O)CC(=O)[C@@H]1C/C=C\CCCC(=O)O [PGE2]
- reactivity of the antibodies with the compound (in words) [1]: unreactive
- % Reactivity (cross reactivity) [1]: <0.01%

Compound: CCCCCC(O)C=CC1OC(=O)CC(O)C1CC=CCC(=O)O (stereo not shown) [11-dehydro-2,3 dinor thromboxane B2]
- reactivity of the antibodies with the compound (in words) [1]: react; also recorded: high reactivity
- % Reactivity (cross reactivity) [1]: 166%

Compound: O=C(O)CCCCC(=O)CCC1C(O)CC(=O)C1CCC(=O)O (stereo not shown) [2,3,4,5-tetranor-20-Carboxy 13,14-dihydro-15-keto PGE2]
- reactivity of the antibodies with the compound (in words) [1]: unreactive
- % Reactivity (cross reactivity) [1]: <0.01%

Compound: CCCCC[C@H](O)/C=C/[C@H]1OC(O)C[C@H](O)[C@@H]1C/C=C\CC(=O)O (stereo partly shown) [2,3 dinor TxB2]
- reactivity of the antibodies with the compound (in words) [1]: unreactive
- % Reactivity (cross reactivity) [1]: 1.93%

Compound: O=C(O)CCCCC(=O)CCC1C(O)CC(O)C1CCC(=O)O (stereo not drawn) [2,3,4,5-tetranor-20-Carboxy 13,14-dihydro-15-keto PGF2α]
- reactivity of the antibodies with the compound (in words) [1]: unreactive
- % Reactivity (cross reactivity) [1]: <0.01%

Compound: CCCCC[C@H](O)/C=C/[C@H]1C(=O)C[C@H](O)[C@@H]1C/C=C\CCCC(=O)O [PGD2]
- reactivity of the antibodies with the compound (in words) [1]: unreactive
- % Reactivity (cross reactivity) [1]: 0.2%

Compound: CCCCC[C@H](O)/C=C/[C@@H]1[C@@H](CC(=O)CCCCC(=O)O)[C@@H](O)C[C@H]1O [6-keto PGF1a]
- reactivity of the antibodies with the compound (in words) [1]: unreactive
- % Reactivity (cross reactivity) [1]: <0.01%

Compound: CCCCC[C@H](O)/C=C/[C@H]1OC(O)C[C@H](O)[C@@H]1C/C=C\CCCC(=O)O (stereo partly shown) [TxB2, thromboxane B2]
- reactivity of the antibodies with the compound (in words) [1]: unreactive
- % Reactivity (cross reactivity) [1]: 0.05%

Compound: CC(=O)Oc1ccccc1C(=O)O [aspirin, acetyl salicylic acid]
- urinary 11dhTxB2 per mg creatinine, average patient value ([2]; aspirin 81 mg/day): 418 pg/mg
- urinary 11dhTxB2 per mg creatinine, average patient value ([2]; aspirin 162 mg/day): 471 pg/mg
- urinary 11dhTxB2 per mg creatinine, average patient value ([2]; aspirin 325 mg/day): 377 pg/mg
- number of urine samples Negative (>1500 pg/creatinine) [2, 5]: 16
- number of urine samples Positive (<1500 pg/creatinine) [2, 5]: 251
- block of platelet COX-1 activity [3]: more than 95%
- reduction of cardiovascular events [4]: ≤ 25%
